According to patent US12336991B2, “Factor XIIA inhibitors” (UNIVERSITY OF LEEDS, priority 2018, dated 2025):

Legend:
Type in all cases: biochemical
[1] = molecular target: FXa (Homo sapiens, UniProt P00742); experiment: Determination of selectivity: FXa inhibition, chromogenic substrate S2765 assay; details: fold selectivity for FXIIa over FXa
Outline: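 Human FXa (5 nM) preincubated with compound (top 500 μM, 5% DMSO) 10 min at 37 °C in 50 mM Tris, 137 mM NaCl pH 7.4, then S2765 ([…]) added; A405 kinetics over 3 h at 37 °C. IC50 from initial rates, converted to Ki via Cheng-Prusoff.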

[2] = molecular target: T1, thrombin (Homo sapiens, UniProt P00734); experiment: Determination of selectivity: thrombin inhibition, chromogenic substrate GPR assay; details: fold selectivity for FXIIa over thrombin
T1 construct: FXa (5 nM) and thrombin (5 nM)
Outline: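 Thrombin (5 nM) preincubated with compound 10 min at 37 °C in 50 mM Tris, 137 mM NaCl, pH 7.4, 5% DMSO, then GPR substrate ([…]) added. Absorbance at 405 nm read kinetically for 3 h; IC50 from initial rates, converted to Ki via Ki=IC50/(1+[S]/Km).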

[3] = molecular target: T2, FXIIa (Homo sapiens, UniProt P00748); experiment: Determination of Factor XIIa inhibition, chromogenic substrate S-2302 assay; details: human FXIIa alpha
T2 sequence (P00748 373-615 limits assumed): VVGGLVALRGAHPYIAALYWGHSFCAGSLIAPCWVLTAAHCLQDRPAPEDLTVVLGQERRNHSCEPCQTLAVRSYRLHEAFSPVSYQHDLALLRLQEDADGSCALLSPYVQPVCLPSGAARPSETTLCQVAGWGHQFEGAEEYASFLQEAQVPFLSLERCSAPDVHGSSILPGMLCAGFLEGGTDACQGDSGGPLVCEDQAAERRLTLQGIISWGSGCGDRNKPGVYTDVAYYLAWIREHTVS
T2 sequence (P00748 20-372 partner limits assumed): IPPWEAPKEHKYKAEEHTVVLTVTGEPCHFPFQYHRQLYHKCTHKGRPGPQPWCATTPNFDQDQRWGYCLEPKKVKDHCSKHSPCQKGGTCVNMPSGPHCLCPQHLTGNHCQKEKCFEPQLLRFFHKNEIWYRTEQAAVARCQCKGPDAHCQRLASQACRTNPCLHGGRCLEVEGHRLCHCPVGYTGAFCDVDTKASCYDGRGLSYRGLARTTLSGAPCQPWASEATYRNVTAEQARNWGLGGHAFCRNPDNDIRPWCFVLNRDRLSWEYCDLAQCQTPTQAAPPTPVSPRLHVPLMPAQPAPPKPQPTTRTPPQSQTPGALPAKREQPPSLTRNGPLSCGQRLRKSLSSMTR
Outline: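 FXIIa (10 nM) preincubated with compound 10 min at 37° C. in 50 mM Tris, 137 mM NaCl pH 7.4, 5% DMSO, top concentration 500 μM, then S-2302 added ([…]). Absorbance at 405 nm read kinetically for 3 h; IC50 from initial rates, converted to Ki by Cheng-Prusoff.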

Chain of FXa (P00742 235-488 limits assumed): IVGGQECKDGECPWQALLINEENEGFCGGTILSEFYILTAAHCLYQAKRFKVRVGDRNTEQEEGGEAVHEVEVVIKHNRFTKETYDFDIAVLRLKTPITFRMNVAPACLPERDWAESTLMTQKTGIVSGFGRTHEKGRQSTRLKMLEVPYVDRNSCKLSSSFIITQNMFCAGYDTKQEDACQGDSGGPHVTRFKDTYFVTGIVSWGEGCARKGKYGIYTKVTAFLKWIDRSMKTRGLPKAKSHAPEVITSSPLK
Chain of FXa (P00742 41-179 partner limits assumed): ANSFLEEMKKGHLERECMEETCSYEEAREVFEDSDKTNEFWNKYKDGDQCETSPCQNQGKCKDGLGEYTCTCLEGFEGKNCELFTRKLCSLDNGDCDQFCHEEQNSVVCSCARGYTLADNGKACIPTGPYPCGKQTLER

SMILES	FXa (human)/FXIIa alpha (human) [1]	Ki [3] [µM]	Thrombin (human)/FXIIa alpha (human) [2]
COc1ccc(C[C@@H]2C[C@@H](C(=O)NCc3ccc4c(c3)nnn4C)N(C(=O)C3NCCc4cc(O)ccc43)C2)cc1 (stereo partly drawn) [Example M05429]	∘∘	> 2	++ (fold selectivity value of 10 to 100)
Cn1nnc2cc(CNC(=O)[C@@H]3C[C@H](c4ccccc4Oc4ccccc4)CN3C(=O)[C@H](N)CCc3ccccc3)ccc21 [Example M05174]	∘∘	> 2	++ (fold selectivity value of 10 to 100)
CC(C)Oc1ccc(CC2C[C@@H](C(=O)NCc3ccc4c(c3)nnn4C)N(C(=O)[C@H]3C[C@@H](c4ccccc4)CN3)C2)cc1 (stereo partly drawn) [Example M05349]	∘∘	0.2 to 2	++ (fold selectivity value of 10 to 100)
NCc1ccc(CNC(=O)[C@@H]2C[C@H](O)CN2C(=O)[C@H](N)CCc2ccccc2)cn1 [Example M05054]	∘∘	> 2	++ (fold selectivity value of 10 to 100)
COc1ccc(C[C@@H]2C[C@@H](C(=O)NCc3ccc4c(c3)nnn4C)N(C(=O)[C@H](N)CCC(=O)N3CCNC[C@H]3C)C2)cc1 [Example M05443]	∘∘∘	0.2 to 2	+++ (fold selectivity values greater than 100)
COc1ccc(C[C@@H]2C[C@@H](C(=O)NCc3ccc4c(c3)nnn4C)N(C(=O)[C@H](N)CCc3ccc(F)cc3)C2)cc1 [Example M00949]	∘∘	0.2 to 2	+++ (fold selectivity values greater than 100)
COC(=O)N[C@H]1C[C@@H](C(=O)NCc2ccc3c(c2)nnn3C)N(C(=O)[C@H](N)CCc2ccccc2)C1 [Example M05207]	∘∘	> 2	++ (fold selectivity value of 10 to 100)
Cn1nnc2cc(CNC(=O)[C@@H]3C[C@@H](Cc4cccnc4)CN3C(=O)[C@H](N)CCC(=O)N3CCCC3)ccc21 [Example M05218]	∘∘∘	0.2 to 2	+++ (fold selectivity values greater than 100)
Cn1nnc2cc(CNC(=O)[C@@H]3C[C@@H](Cc4cccc5c4CCO5)CN3C(=O)[C@H](N)CCC(=O)N3CCCC3)ccc21 [Example M05380]	∘∘∘	0.2 to 2	+++ (fold selectivity values greater than 100)
NCc1ccc(CNC(=O)C2CCCN2C(=O)[C@H](N)CCc2cccc(CO)c2)cc1 (stereo partly drawn) [Example M00805]	∘∘	> 2	+ (fold selectivity values less than 10)
Cn1ncc2cc(CNC(=O)[C@@H]3C[C@@H](c4ccccc4)CN3C(=O)[C@H](N)CCc3ccccc3)ccc21 [Example M05188]	∘∘	> 2	++ (fold selectivity value of 10 to 100)
Cn1nnc2cc(CNC(=O)[C@@H]3C[C@@H](Cc4ccc(Br)cc4)CN3C(=O)[C@H]3C[C@@H](c4ccccc4)CN3)ccc21 [Example M05342]	∘∘∘	0.2 to 2	++ (fold selectivity value of 10 to 100)
Cn1nnc2cc(CNC(=O)[C@@H]3C[C@H](NCc4cccc(C(F)(F)F)c4)CN3C(=O)[C@H](N)CCc3ccccc3)ccc21 [Example M05159]	∘∘	> 2	++ (fold selectivity value of 10 to 100)
COc1ccc(C[C@@H]2C[C@@H](C(=O)NCc3ccc4c(c3)nnn4C)N(C(=O)[C@H](N)CCC(=O)N3CCNCC3)C2)cc1 [Example M05393]	∘∘∘	0.2 to 2	+++ (fold selectivity values greater than 100)
Cn1nnc2cc(CNC(=O)[C@@H]3C[C@@H](Cc4cccc(Cl)c4)CN3C(=O)[C@H]3C[C@@H](c4ccccc4)CN3)ccc21 [Example M05335]	∘∘	> 2	++ (fold selectivity value of 10 to 100)

Second part, led by results:

FXa (human)/FXIIa alpha (human) [1]	Ki [3] [µM]	SMILES	Thrombin (human)/FXIIa alpha (human) [2]
∘∘∘	0.2 to 2	Cn1nnc2cc(CNC(=O)[C@@H]3C[C@@H](Cc4ccc(S(C)(=O)=O)cc4)CN3C(=O)[C@H](N)CCC(=O)N3CCCC3)ccc21 [Example M05384]	+++ (fold selectivity values greater than 100)
∘∘∘	0.2 to 2	NCc1ccc(CNC(=O)[C@@H]2C[C@@H](Cc3cccc(Cl)c3)CN2C(=O)[C@H](N)CCc2ccccc2)cc1 [Example M05130]	++ (fold selectivity value of 10 to 100)
∘∘∘	0.2 to 2	COc1ccc2c(c1)CCNC2C(=O)N1C[C@H](Cc2ccncc2)C[C@H]1C(=O)NCc1ccc2c(c1)nnn2C (stereo partly drawn) [Example M05462]	+++ (fold selectivity values greater than 100)
∘∘	0.2 to 2	Nc1nccc2cc(CNC(=O)[C@@H]3CCCN3C(=O)[C@H](N)CCc3ccccc3)ccc12 [Example M05237]	+ (fold selectivity values less than 10)
∘∘∘	0.2 to 2	COc1ccc(C[C@@H]2C[C@@H](C(=O)NCc3ccc4c(c3)nnn4C)N(C(=O)[C@H]3C[C@@H](c4ncccn4)CN3)C2)cc1 [Example M05387]	+++ (fold selectivity values greater than 100)
∘∘∘	< 0.2	COc1ccc(C[C@@H]2C[C@@H](C(=O)NCc3cc4cnccc4[nH]3)N(C(=O)[C@H](N)CCC(=O)N3CCCC3)C2)cc1 [Example M00957]	+++ (fold selectivity values greater than 100)
∘∘∘	< 0.2	Cn1nc(Cl)c2cc(CNC(=O)[C@@H]3C[C@@H](Cc4cccnc4)CN3C(=O)[C@H](N)CCC(=O)N3CCCC3)ccc21 [Example M05224]	+++ (fold selectivity values greater than 100)
∘∘∘	0.2 to 2	COc1ccc(C[C@@H]2C[C@@H](C(=O)NCc3ccc4c(c3)nnn4C)N(C(=O)[C@H]3C[C@@H](c4ccccc4)CN3C)C2)cc1 [Example M05389, (2S,4R)-4-(4-Methoxy-benzyl)-1-((2R,4S)-1-methyl-4-phenyl-pyrrolidine-2-carbonyl)-pyrrolidine-2-carboxylic acid (1-methyl-1H-benzotriazol-5-ylmethyl)-amide]	+++ (fold selectivity values greater than 100)
∘∘∘	< 0.2	Cn1nnc2cc(CNC(=O)[C@@H]3C[C@@H](Cc4cccc(Br)c4)CN3C(=O)[C@H](N)CCC(=O)N3CCCC3)ccc21 [Example M05317]	+++ (fold selectivity values greater than 100)
∘∘∘	< 0.2	COc1ccc(C[C@@H]2C[C@@H](C(=O)NCc3cc4cnccc4[nH]3)N(C(=O)[C@H]3C[C@@H](N4CCCCC4)CN3)C2)cc1 [Example M00964]	+++ (fold selectivity values greater than 100)
